Structures can show the parent of a compound that is named as a salt. Where two headings read alike, the source gives them in different places.
Assays:
[1] = system: Staphulococcus aureus (ATCC 29213); experiment: Minimum inhibitory concentration (MIC) assay, Example 33; format: cell-based, Staphylococcus aureus
Procedure: (§1) Thirty compounds were tested for antimicrobial activity using standard procedures and standard strains for both the minimum inhibitory concentration (MIC) assay and a time kill study. Both the MIC assay and the time kill study were performed according to Clinical and Laboratory Standards Institute (CLSI) guidelines. Three bacteria strains, Escherichia coli (ATCC 25922), Pseudomonas aeruginosa (ATCC 27853), Staphulococcus aureus (ATCC 29213), and two fungus strains, Candida albicans (ATCC 90029) and Aspergillus niger (CMCC 98003), were used in the experiments.
(§2) Preparation of cultures. Before the experiment, two days for the bacteria strains and five days for fungus strains, an aliquot was removed from the cultures frozen at −80° C. Medium was added to the surface of an appropriate agar plate and streaked with the aliquot. The plate was incubated for 20 to 24 hrs at 35±2° C. for bacteria or for 5 days at 26-30° C. in incubator for fungus. From the resulting growth on each plate, one isolated colony of similar morphology was selected and re-streaked onto a fresh agar plate using a sterile disposable loop. The plate was incubated 20 to 24 hrs at 35±2° C. or for 5 days at 26-30° C. in an incubator.
(§3) Preparation of Assay Plates with Medium and Drugs. On the day of the assay, CAMHB medium or RPMI 1640 medium was removed from 4′C storage and allowed to reach room temperature. Ninety microliters (μL) of room temperature CAMHB or RPMI 1640 (supplemented with the appropriate concentration of DMSO, if required) were added to rows B-G of each 96-well microtiter plate. Using a pipette, duplicate 180 μL aliquots of each drug stock solution were added to column 1 (e.g. A1 and B1 or C1 and D1 or E1 and F1 or G1 and H1). Using a multichannel pipette or the Provision 2000 liquid handler, serial 2-fold dilutions (90 μL) were performed in each row across the plate to row G. Eighty μL of compounds dilutions were transferred to a 96-deep well plate. Medium, 1,520 μL of CAMHB or RPMI 1640, was added to each well. The contents of the wells were mixed thoroughly. A 50 μL aliquot of each of the resulting mixtures was transferred to a 96-well assay plate.
(§4) For bacteria, a sterile inoculating loop was used to transfer growth from an agar plate culture into about 5 mL of test medium. Using a turbidity meter, this inoculum was adjusted so that its density (600 nm) was equivalent to a 0.5 McFarland barium sulfate standard (0.08-0.13). The resulting suspension was diluted 1:100 into medium to obtain two times test inoculums.
(§5) For Aspergillus niger, sporulating colonies were covered with RPMI 1640, and a suspension was prepared by gently probing the colonies with the tip of a transfer pipette. The suspension was transferred to a sterile tube and mixed with a vortex mixer for 15 seconds. The densities at 530 nm were adjusted to 0.09-0.13 for each sample. The resulting suspension was diluted 1:50 with the medium to obtain two times test inoculums. Fifty μL/well of this inoculum suspension was added to wells of drug-containing plates (1:2 dilution). Plates were incubated at 35° C. for the appropriate times. The MIC was read and recorded according to CLSI guidelines.
(§6) The MIC values for thirty compounds against Escherichia coli, Pseudomonas aeruginosa, Staphulococcus aureus, Candida albicans, and Aspergillus niger were recorded and are presented in Table 3 and Table 4.

[2] = system: Pseudomonas aeruginosa (ATCC 27853); experiment: as above; format: cell-based; conditions: for MIC: Table 19 summary
Procedure: as §1, §2, §3, §4, §5, §6

[3] = system: Escherichia coli (ATCC 25922); experiment: as above; format: cell-based; conditions: for MIC: Table 19 summary of Example 33 and Example 35
Procedure: as §1, §2, §3, §4, §5, §6

[4] = system: Aspergillus niger (CMCC 98003); experiment: as above; format: cell-based
Procedure: as §1, §2, §3, §5, §6

[5] = system: Candida albicans (ATCC 90029); experiment: as above; format: cell-based; conditions: for MIC: Table 19 summary
Procedure: as §1, §2, §3
For Candida albicans, a sterile inoculating loop was used to transfer growth from an agar plate culture into a tube with RPMI1640 medium. This inoculum was adjusted so that its density at 530 nm was in the ranges from 0.08 to 0.13. The resulting suspension was diluted 1:50 and further diluted 1:20 with the medium to obtain two times test inoculums.
as §5, §6

pH (Table 1) = format: physicochemical
[6] = system: Pseudomonas aeruginosa (ATCC 27853); experiment: Time kill study, Example 33 (0 to 5 min); format: cell-based; conditions: 1×MIC
Procedure: as §1
(§7) The viable counts in Log10 CFU/mL at each time point were recorded.
(§8) Time kill studies. Strain suspensions were prepared as described above for the MIC test, and strain suspensions and compound solutions were mixed in the same volume. Samples were removed at specified times including 0 min, 30 sec, 1 min and 5 mins, were diluted in the test medium and streaked on agar. Colonies were counted after 24 to 48 hrs of incubation. […]

[7] = system: Staphylococcus aureus (ATCC 29213); experiment: Time kill study, Example 33 (0 to 5 min); format: cell-based; conditions: 1×MIC
Procedure: as §1, §7, §8

[8] = system: Escherichia coli (ATCC 25922); experiment: Time kill study, Example 33 (0 to 5 min); format: cell-based; conditions: 1×MIC
Procedure: as §1, §7, §8

CCCCCCCCCCCCOC(=O)C(C)N(C)C (stereo not drawn) [Nex-20, Dodecyl 2-(dimethylamino)propanoate maleate]
MIC S. aureus ([1]; n = 1, maleate): 3130 µg/mL | MIC S. aureus ([1]; n = 2, maleate): 1560 µg/mL | MIC ([2]; maleate): 6250 µg/mL | MIC P. aeruginosa ([2]; n = 1, maleate): 6250 µg/mL | MIC P. aeruginosa ([2]; n = 2, maleate): 6250 µg/mL | MIC ([3]; maleate): 1560 µg/mL | MIC E. coli ([3]; n = 1, maleate): 1560 µg/mL | MIC E. coli ([3]; n = 2, maleate): 1560 µg/mL | MIC ([4]; Aspergillus niger, CMCC98003, Table 19 summary, read-out: MIC): > 12500 µg/mL | MIC Aspergillus niger ([4]; n = 1, maleate): >12500 µg/mL | MIC ([5]; maleate): 12500 µg/mL | MIC Candida albicans ([5]; n = 1, maleate): 12500 µg/mL | MIC Candida albicans ([5]; n = 2, maleate): 12500 µg/mL | pH (pH (Table 1); maleate): 3.39 | Viable counts, Pseudomonas aeruginosa time kill study ([6]; 0.5 min, maleate): <4.0 Log10 CFU/mL | Viable counts, Pseudomonas aeruginosa time kill study ([6]; 1 min, maleate): 3.7 Log10 CFU/mL | Viable counts, Pseudomonas aeruginosa time kill study ([6]; 5 min): <3.52 Log10 CFU/mL | Viable counts, Pseudomonas aeruginosa time kill study ([6]; time 0, maleate): 5.56 Log10 CFU/mL | Viable counts, Staphylococcus aureus time kill study ([7]; 0.5 min, maleate): 6.18 Log10 CFU/mL | Viable counts, Staphylococcus aureus time kill study ([7]; 1 min, maleate): 6.15 Log10 CFU/mL | Viable counts, Staphylococcus aureus time kill study ([7]; 5 min, maleate): 5.61 Log10 CFU/mL | Viable counts, Staphylococcus aureus time kill study ([7]; time 0, maleate): 6.15 Log10 CFU/mL | Viable counts, Escherichia coli time kill study ([8]; 0.5 min, maleate): 5.84 Log10 CFU/mL | Viable counts, Escherichia coli time kill study ([8]; 1 min, maleate): 5.92 Log10 CFU/mL | Viable counts, Escherichia coli time kill study ([8]; 5 min, maleate): 4.37 Log10 CFU/mL | Viable counts, Escherichia coli time kill study ([8]; time 0, maleate): 5.86 Log10 CFU/mL

CCCCCCCCCCCCOC(=O)C(C)N(C)C.CCCCCCCCCCCCOC(=O)C(C)N(C)C.O=S(=O)(O)c1cccc2c(S(=O)(=O)O)cccc12 (stereo not drawn) [Nex-32, Dodecyl 2-(dimethylamino)propanoate heminaphthalene-1,5-disulfonate]
MIC ([1]; Table 19 summary): 1560 µg/mL | MIC S. aureus ([1]; n = 1): 1560 µg/mL | MIC S. aureus ([1]; n = 2): 1560 µg/mL | MIC [2]: 6250 µg/mL | MIC P. aeruginosa ([2]; n = 1): 6250 µg/mL | MIC P. aeruginosa ([2]; n = 2): 6250 µg/mL | MIC [3]: 3130 µg/mL | MIC E. coli ([3]; n = 1): 3130 µg/mL | MIC E. coli ([3]; n = 2): 3130 µg/mL | MIC ([4]; Table 19 summary): >12500 µg/mL | MIC Aspergillus niger ([4]; n = 1): >12500 µg/mL | MIC Aspergillus niger ([4]; n = 2): >12500 µg/mL | MIC [5]: >12500 µg/mL | MIC Candida albicans ([5]; n = 1): >12500 µg/mL | MIC Candida albicans ([5]; n = 2): >12500 µg/mL | pH (pH (Table 1)): 3.87 | Viable counts, Pseudomonas aeruginosa time kill study ([6]; 0.5 min): 5.62 Log10 CFU/mL | Viable counts, Pseudomonas aeruginosa time kill study ([6]; 1 min): 4.48 Log10 CFU/mL | Viable counts, Pseudomonas aeruginosa time kill study ([6]; 5 min): 4.12 Log10 CFU/mL | Viable counts, Pseudomonas aeruginosa time kill study ([6]; time 0): 5.73 Log10 CFU/mL | Viable counts, Staphylococcus aureus time kill study ([7]; 0.5 min): 6.31 Log10 CFU/mL | Viable counts, Staphylococcus aureus time kill study ([7]; 1 min): 6.23 Log10 CFU/mL | Viable counts, Staphylococcus aureus time kill study ([7]; 5 min): 6.2 Log10 CFU/mL | Viable counts, Staphylococcus aureus time kill study ([7]; time 0): 6.25 Log10 CFU/mL | Viable counts, Escherichia coli time kill study ([8]; 0.5 min): 5.77 Log10 CFU/mL | Viable counts, Escherichia coli time kill study ([8]; 1 min): 4.7 Log10 CFU/mL | Viable counts, Escherichia coli time kill study ([8]; 5 min): <3.52 Log10 CFU/mL | Viable counts, Escherichia coli time kill study ([8]; time 0): 6.05 Log10 CFU/mL

From patent publication US20140357713A1, “ANTIMICROBIAL COMPOUNDS AND METHODS OF USE” (NexMed Holdings, Inc., priority 2012, published 2014)
